# Data reported in patent publication EP0175304A2 (LABORATORI BALDACCI Spa, priority 1984, dated 1986).
# Read-outs that look alike come from different tables or passages of the source.
# Key:
# [1] = acute toxicity (LD50 and toxic symptomatology), intraperitoneal administration; format: in vivo; conditions: in vivo, mouse, ip, 10 days observation, graphic interpolation; for LD50 at 10 days: Swiss
# Experimental: (§1) The compounds of the invention were tested to evaluate their antiinflammatory, analgesic, antipyretic, platelet aggregation inhibition and cytostatic pharmacological effects. At the same time acute toxicity tests were made in the mouse with evaluation of LD 50 and of the symptomatology resulting from the treatment.
# (§2) LD 50 and toxic symptomatology resulting from the treatment were evaluated in the growing Swiss mouse by intraperitoneal administration of the different compounds. The period of observation was extended for 10 days after administration and the value of the lethal dose was calculated by graphic interpolation of the number of deaths.
# (§3) In Table II are given acute toxicity data (LD50 calculated with the graphic method) obtained in the mouse after intraperitoneal administration of the various compounds and the symptomatological observations attributable to the treatment.
# [2] = tested on: growing Swiss mouse; experiment: as above; format: in vivo; conditions: ip
# Experimental: as §1, §2, §3
# [3] = tested on: Fibrosarcoma 3T3-B77; experiment: cytostatic action on fibrosarcoma cell line; format: cell-based; conditions: compounds added in vitro in different concentrations
# Experimental: (§4) Cytostatic action was tested on cellular lines of Fibrosarcoma 3T3-B77 obtained by conversion of 3T3 Bald/C fibroblasts by Bratislava 77 strain RSV virus and on MELANOMA B16-Fl cells.
# (§5) The influence of cellular proliferation induced by the addition in vitro of the compounds in different concentrations was evaluated.
# [4] = tested on: MELANOMA B16-Fl cells; experiment: cytostatic action on melanoma cells; format: cell-based; conditions: compounds added in vitro in different concentrations
# Experimental: as §4, §5
# [5] = tested on: platelet aggregation; experiment: platelet aggregation in vitro according to Born, inducer arachidonic acid; format: cell-based, human; conditions: inducer 1 mM arachidonic acid
# Experimental: (§6) Inhibition of platelet aggregation was evaluated in vitro according to the Born method with various inducers (arachidonic acid, adrenalin, collagen) using as the substrate human plasma from healthy donors. For some new compounds the generation of thromboxane B2 and 6-keto-PGF according to the De Fryen method was evaluated. Platelet aggregation was studied in two successive periods: immediately after addition of the derivative and after 15 minutes of incubation at 37°C.
# On some of the compounds which are the object of the present invention differentiated independently of the magnitude of the antiinflamatory, analgesic and antipyretic effect, preliminary tests in vitro were performed under the experimental conditions set forth above for the purpose of evaluating their effect on platelet reactivity.
# [6] = tested on: TXB2; experiment: generation of TXB2 on whole blood after stimulation with collagen; format: cell-based; conditions: collagen 1 μg/ml
# Experimental: as §6
# The results obtained on the generation of TXB2 and 6-Keto-PGF evaluated to determine preliminarily the level of interaction on the biochemical. mechanisms underlying increased platelet reactivity are given in Table X.
# [7] = haematic and urine rates after oral treatment (HPLC); format: in vivo; conditions: rat, 50 mg/kg os
# Experimental: To preliminarily complete the pharmacological profile of the new series of compounds which are the object of the present invention and making reference to compound 8 a pharmacological test was performed in the rat and a subacute toxicity test was performed in the same animal species. Determination was performed with HPLC of the content in biological liquids.
# [8] = tested on: growing male Wistar rat; experiment: antiinflammatory action, carrageenin-induced paw edema; format: in vivo; conditions: one dosage per product, 5-100 mg/kg, see column 'Dosage mg/kg ip'
# [9] = tested on: male Wistar rat; experiment: analgesic action, Randall and Selitto method (carrageenin-inflamed paw); format: in vivo; conditions: one dosage per product, 5-100 mg/kg, see column 'Dosage mg/kg ip'
# [10] = tested on: growing male Wistar rat; experiment: antipyretic action, beer yeast-induced hyperthermia; format: in vivo; conditions: one dosage per product, 5-100 mg/kg, see column 'Dosage mg/kg ip'
smiles,measurement,setting,value
O=C(O)CCON=C1CCCC1 [compound 1],LD50 at 240 h,[1],200 mg/kg
same,Symptomatology,[2],agitation
same,influence on cellular proliferation,[3],significant influence on cellular proliferation
same,influence on cellular proliferation,[4],significant influence on cellular proliferation
O=C(O)CCO/N=C/c1ccccc1 [compound 8],LD50 at 10 days,[1],600 mg/kg
same,Symptomatology,[2],passivity
same,Percentage response variation AM,[5]; 5.10^-4 M,-32.3%
same,Percentage response variation Lagt,[5]; 5.10^-4 M,+114.3%
same,Percentage response variation AM,[5]; 5.10^-5 M,-1.5%
same,Percentage response variation Lagt,[5]; 5.10^-5 M,+10.7%
same,Generation of TXB2,"[6]; 5.10^-4 M, 5 min, control 41.2",11.7 (41.2) μg/ml
same,Generation of TXB2,"[6]; 5.10^-4 M, 15 min, control 26.5",8.6 (26.5) μg/ml
same,Generation of TXB2,"[6]; 5.10^-4 M, 30 min, control 36.5",8.5 (36.5) μg/ml
same,Generation of TXB2,"[6]; 5.10^-4 M, 60 min, control 65.8",15.1 (65.8) μg/ml
same,Generation of TXB2,"[6]; 5.10^-5 M, 5 min, control 41.2",54.3 (41.2) μg/ml
same,Generation of TXB2,"[6]; 5.10^-5 M, 15 min, control 26.5",37.5 (26.5) μg/ml
same,Generation of TXB2,"[6]; 5.10^-5 M, 30 min, control 36.5",41.4 (36.5) μg/ml
same,Generation of TXB2,"[6]; 5.10^-5 M, 60 min, control 65.8",68 (65.8) μg/ml
same,influence on cellular proliferation,[3],significant influence on cellular proliferation
same,influence on cellular proliferation,[4],significant influence on cellular proliferation
same,concentration at 1 h,"[7]; plasma, 1 hour",180 µg/mL
same,concentration at 2 h,"[7]; plasma, 2 hours",145 µg/mL
same,concentration at 3 h,"[7]; plasma, 3 hours",142 µg/mL
same,concentration at 4 h,"[7]; plasma, 4 hours",141 µg/mL
same,concentration at 6 h,"[7]; plasma, 6 hours",140 µg/mL
same,concentration at 24 h,"[7]; plasma, read-out: Plasma",90 µg/mL
same,concentration at 48 h,"[7]; plasma, read-out: Plasma",53 µg/mL
same,concentration at 8 h,"[7]; urine, 8 hours",30 µg/mL
same,concentration at 24 h,"[7]; urine, read-out: Urine",80 µg/mL
same,concentration at 48 h,"[7]; urine, read-out: Urine",17 µg/mL
O=C(O)CCON=Cc1ccc(Cl)cc1 [compound 14],LD50 at 240 h,[1],350 mg/kg
same,Symptomatology,[2],passivity
O=C(O)CCON=C(c1ccccc1)c1ccccc1 [compound 7],LD50 at 240 h,[1],300 mg/kg
same,Symptomatology,[2],passivity
O=C(O)CCO/N=C/c1ccc2c(c1)OCO2 [compound 21],LD50 at 240 h,[1],525 mg/kg
same,Symptomatology,[2],passivity
CCCC(CCC)=NOCCC(=O)O [compound 4],LD50 at 240 h,[1],450 mg/kg
same,Symptomatology,[2],passivity
CCC(CO/N=C/c1ccccc1)C(=O)O (stereo not drawn) [compound 25],LD50 at 240 h,[1],800 mg/kg
same,Symptomatology,[2],passivity
same,Antiinflammatory action (maximum % response in first 4 hours),[8],35%
same,Analgesic action (maximum % response in first 4 hours),[9],40%
same,Antipyretic action (maximum % response in first 4 hours),[10],35%
same,influence on cellular proliferation,[3],significant influence on cellular proliferation
same,influence on cellular proliferation,[4],significant influence on cellular proliferation
O=C(O)CCON=C1CCCCC1 [compound 2],LD50 at 240 h,[1],50 mg/kg
same,Symptomatology,[2],agitation
same,influence on cellular proliferation,[3],significant influence on cellular proliferation
same,influence on cellular proliferation,[4],significant influence on cellular proliferation
CC(=NOCCC(=O)O)c1ccc(Cl)cc1 [compound 11],LD50 at 240 h,[1],250 mg/kg
same,Symptomatology,[2],agitation
O=C(O)CCO/N=C/c1cccs1 [compound 22],LD50 at 240 h,[1],1800 mg/kg
same,Symptomatology,[2],passivity
same,Percentage response variation AM,[5]; 5.10^-4 M,+80.5%
same,Percentage response variation Lagt,[5]; 5.10^-4 M,+276.0%
same,Percentage response variation AM,[5]; 5.10^-5 M,+38.3%
same,Percentage response variation Lagt,[5]; 5.10^-5 M,+12.0%
CC(=NOCCC(=O)O)c1ccccc1 [compound 6],LD50 at 240 h,[1],600 mg/kg
same,Symptomatology,[2],passivity
O=C(O)CCON=Cc1ccco1 [compound 15],LD50 at 240 h,[1],1500 mg/kg
same,Symptomatology,[2],negligible
COc1ccc(OC)c(C=NOCCC(=O)O)c1 [compound 16],LD50 at 240 h,[1],600 mg/kg
same,Symptomatology,[2],passivity
same,Percentage response variation AM,[5]; 5.10^-4 M,-13.3%
same,Percentage response variation Lagt,[5]; 5.10^-4 M,+28.0%
same,Percentage response variation AM,[5]; 5.10^-5 M,-16.1%
same,Percentage response variation Lagt,[5]; 5.10^-5 M,-8.0%
CC(C)=NOCCC(=O)O [compound 3],LD50 at 240 h,[1],300 mg/kg
same,Symptomatology,[2],passivity
O=C(O)CCON=Cc1cccc(Cl)c1 [compound 18],LD50 at 240 h,[1],325 mg/kg
same,Symptomatology,[2],passivity
O=C(O)CCO/N=C\c1ccccc1 [compound 23],LD50 at 10 days,[1],510 mg/kg
same,Symptomatology,[2],passivity
same,influence on cellular proliferation,[3],significant influence on cellular proliferation
same,influence on cellular proliferation,[4],significant influence on cellular proliferation
COc1ccc(C(C)=NOCCC(=O)O)cc1 [compound 12],LD50 at 240 h,[1],850 mg/kg
same,Symptomatology,[2],passivity
CC(C)C(=NOCCC(=O)O)C(C)C [compound 5],LD50 at 10 days,[1],400 mg/kg
same,Symptomatology,[2],agitation
O=C(O)CCON=Cc1ccccc1Cl [compound 17],LD50 at 240 h,[1],400 mg/kg
same,Symptomatology,[2],passivity
same,Percentage response variation AM,[5]; 5.10^-4 M,-79.8%
same,Percentage response variation Lagt,[5]; 5.10^-4 M,+273.9%
same,Percentage response variation AM,[5]; 5.10^-5 M,-33.3%
same,Percentage response variation Lagt,[5]; 5.10^-5 M,+60.0%
O=C(O)CCON=C1c2ccccc2-c2ccccc21 [compound 13],LD50 at 240 h,[1],250 mg/kg
same,Symptomatology,[2],passivity
same,influence on cellular proliferation,[3],significant influence on cellular proliferation
same,influence on cellular proliferation,[4],significant influence on cellular proliferation
CC(CO/N=C/c1ccccc1)C(=O)O (stereo not drawn) [compound 24],LD50 at 240 h,[1],750 mg/kg
same,Symptomatology,[2],passivity
same,Antiinflammatory action (maximum % response in first 4 hours),[8],35%
same,Analgesic action (maximum % response in first 4 hours),[9],46%
same,Antipyretic action (maximum % response in first 4 hours),[10],40%
same,influence on cellular proliferation,[3],significant influence on cellular proliferation
same,influence on cellular proliferation,[4],significant influence on cellular proliferation
